For test [1], the system named is CPC-N (Small Cell Lung Carcinoma). The test can be described thus: combination Emax (second highest fraction inhibited in the dose matrix, 72 h); higher = more inhibition; extreme values may be limits of the assay. Put shortly: (§1)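 Cell lines in DMEM/F12 or RPMI with 10% FBS were plated in 1536-well plates, held 24 hours at 37°C, 5% CO2, then given two-drug dose matrices for 72 hours (DMSO typically 0.2%). Viability was read by CellTiter-Glo 2.0 luminescence and scaled as inhibition from 0 (vehicle wells) to 1 (blank wells). Combination Emax is the second-highest inhibition in the matrix; Bliss excess is observed combination effect minus expected EA + EB − EA·EB, EA and EB being single-agent effects.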

Test [2] deals with SCC-4 (Oral Cavity Carcinoma). The description is as above. The essentials:
as §1

Test [3] relates to SK-CO-1 (Colorectal Carcinoma). The description is as above. The essentials:
as §1

Test [4] has as its system SNU-423 (Hepatocellular Carcinoma). In words: Bliss excess, mean over the matrix (fraction); higher = more synergy. Put shortly:
as §1

For another test, the system named is ES6 (Ewing's Sarcoma). The test is described as above. The essentials:
as §1

In a further test the test system is UACC-257 (Melanoma). The description is as above. The essentials: as §1
The subject of another test is NCI-H226 (Mesothelioma). The description is as above. The essentials:
as §1

In test [5] the test system is SAT (Head and Neck Carcinoma). The description is as above. Put shortly:
as §1

For test [6], the system named is NMC-G1 (Low Grade Glioma). Described as above. The essentials: as §1
The test system of test [7] is ZR-75-30 (Breast Carcinoma). The test is described as above. The essentials:
as §1

Test [8] deals with SiHa (Cervical Carcinoma). The test is described as above. Put shortly:
as §1

In test [9] the test system is SK-CO-1 (Colorectal Carcinoma). The test is described as above. The essentials: as §1
Test [10] concerns IA-LM (Non-Small Cell Lung Carcinoma). The test is described as above. Put shortly:
as §1

The test system of test [11] is MM1S (Plasma Cell Myeloma). Described as above. Put shortly: as §1
The test system of test [12] is LS-1034 (Colorectal Carcinoma). The description is as above. The essentials:
as §1

For test [13], the system named is P32-ISH (Burkitt's Lymphoma). Described as above. Put shortly: as §1
Test [14] deals with SNU-407 (Colorectal Carcinoma). The description is as above. The essentials: as §1
In test [15] the test system is RCC-JW (Kidney Carcinoma). The description is as above. Put shortly: as §1
In test [16] the test system is DBTRG-05MG (Glioblastoma). The description is as above. The essentials: as §1
For test [17], the system named is CL-11 (Colorectal Carcinoma). Described as above. The essentials:
as §1

Consider `CCN(CCO)CCCOc1ccc2c(Nc3cc(CC(=O)Nc4cccc(F)c4)[nH]n3)ncnc2c1` [AZD2811] + C[C@@H]1COCCN1C2=NC(=NC(=C2)C3(CC3)[S@](=N)(=O)C)C4=C5C=CNC5=NC=C4 [AZD6738] (first compound max 1 µM, 7x7, partner max 10 µM), for which the “combination Emax” value is 0.961 in test [1], 0.633 in test [2] and 0.7 in test [3]. Also, the Bliss excess was -0.0386 in test [4]; -0.0479 in the test on ES6 (Ewing's Sarcoma); -0.0649 in the test on UACC-257 (Melanoma); -0.069 in the test on NCI-H226 (Mesothelioma); -0.0581 in test [5]; -0.117 in test [6]. Besides, the Bliss excess was -0.0533 in [7]; -0.0137 in [8]; -0.0309 in test [9]; -0.0264 in test [10]; 0.0151 in test [11]; -0.0473 in test [12]. The Bliss excess was -0.0153 in test [13]; -0.094 in test [14]; -0.0203 in test [15]; -0.0657 in [16]; -0.0488 in test [17].
Consider `CCN(CCO)CCCOc1ccc2c(Nc3cc(CC(=O)Nc4cccc(F)c4)[nH]n3)ncnc2c1` [AZD2811] + O=C(c1cc(Cc2n[nH]c(=O)c3ccccc23)ccc1F)N1CCN(C(=O)C2CC2)CC1 [Olaparib] (first compound max 1 µM, 7x7, partner max 10 µM), for which the “combination Emax” value in test [1] was 0.807; in [2] it was 0.406; in test [3], 0.615. Besides, the Bliss excess in test [4] is -0.0138; in the test with ES6 (Ewing's Sarcoma) it was -0.0457; with UACC-257 (Melanoma) it was -0.0322; in the test with NCI-H226 (Mesothelioma) it was -0.0448; in [5], -0.0469; in test [6] it was -0.025. Also, the Bliss excess in [7] was -0.0225; in test [8], -0.0053; in [9], 0.0223; in test [10], -0.031; in test [11] it was 0.0541; in [12] it was -0.0253. Also, the Bliss excess in test [13] is -0.035; in [14], -0.0292; in test [15] it was -0.0021; in test [16], -0.0179; in test [17], 0.0084.
As for `CN(CCO)CC[C@H](CSc1ccccc1)Nc1ccc(S(=O)(=O)NC(=O)c2ccc(N3CCC([C@@H](O)c4ccccc4-c4ccc(Cl)cc4)CC3)cc2)cc1S(=O)(=O)C(F)(F)F` [AZD4320] + C1CN(CCC1(C(=O)N[C@@H](CCO)C2=CC=C(C=C2)Cl)N)C3=NC=NC4=C3C=CN4 [Capivasertib] (first compound max 1 µM, 7x7, partner max 3 µM), the “combination Emax” value in test [1] was found to be 0.945; in test [2], 0.598; in [3] it was 0.659. For the same compound, the Bliss excess in [4] was -0.0338; in the test on ES6 (Ewing's Sarcoma) it was -0.0522; in the test on UACC-257 (Melanoma), -0.0405; with NCI-H226 (Mesothelioma), -0.0589; in test [5], -0.0363; in test [6], -0.0838. In addition, the Bliss excess in [7] was -0.0914; in [8], -0.0476; in test [9] it was -0.0462; in test [10], -0.0888; in test [11] it was -0.0076; in test [12] it was -0.0089. Also, the Bliss excess in test [13] was 0.001; in test [14] it was -0.0633; in [15], -0.0559; in test [16], -0.047; in test [17] it was -0.0496.
As to `CN(CCO)CC[C@H](CSc1ccccc1)Nc1ccc(S(=O)(=O)NC(=O)c2ccc(N3CCC([C@@H](O)c4ccccc4-c4ccc(Cl)cc4)CC3)cc2)cc1S(=O)(=O)C(F)(F)F` [AZD4320] + C[C@@H]1COCCN1C2=NC(=NC(=C2)C3(CC3)[S@](=N)(=O)C)C4=C5C=CNC5=NC=C4 [AZD6738] (first compound max 1 µM, 7x7, partner max 10 µM), the “combination Emax” value in test [1] turned out to be 1; in test [2], 0.872; in test [3], 0.928. Moreover, the Bliss excess in [4] was -0.0359; with ES6 (Ewing's Sarcoma), 0.015; in the test with UACC-257 (Melanoma), -0.0663; with NCI-H226 (Mesothelioma) it was -0.0819; in test [6], -0.0724; in test [7], -0.0601. Moreover, the Bliss excess in test [8] is -0.0492; in test [9], -0.0858; in [10], -0.0404; in test [11], -0.0008; in test [12], -0.037; in [13], -0.0092. Besides, the Bliss excess was -0.0568 in test [14], -0.0862 in [15], -0.0221 in [16] and 0.0073 in test [17].
Turning to `Cc1c2c(nn1C)CSCc1cc(n(C)n1)CSc1cc(c3ccccc3c1)OCCCc1c(C(=O)O)n(C)c3c-2c(Cl)ccc13` [AZD5991] + C1CN(CCC1(C(=O)N[C@@H](CCO)C2=CC=C(C=C2)Cl)N)C3=NC=NC4=C3C=CN4 [Capivasertib] (first compound max 1 µM, 7x7, partner max 3 µM), the “combination Emax” value in test [1] was found to be 0.338; in [2] it was 0.334; in [3], 0.213. For the same compound, the Bliss excess in test [4] was -0.0822; in the test with ES6 (Ewing's Sarcoma) it was -0.0055; in the test on UACC-257 (Melanoma), 0.0061; in the test with NCI-H226 (Mesothelioma), -0.0473; in test [5] it was -0.0072; in [6] it was -0.0172. Besides, the Bliss excess in test [7] was -0.0119; in [9], -0.0119; in test [10], -0.021; in [11], -0.0098; in [12] it was -0.0042; in test [13], 0.0276. Moreover, the Bliss excess in [14] was 0.0036; in [15], 0.0131; in [16] it was -0.0215; in [17] it was -0.0234.
For the compound `CCc1c2c(nc3ccc(O)cc13)-c1cc3c(c(=O)n1C2)COC(=O)[C@]3(O)CC` [SN-38] + O=C(c1cc(Cc2n[nH]c(=O)c3ccccc23)ccc1F)N1CCN(C(=O)C2CC2)CC1 [Olaparib] (first compound max 0.3 µM, 7x7, partner max 10 µM), the results for the “combination Emax” value in test [1], in [2] and in test [3] were 0.392, 0.847 and 0.798, respectively. The Bliss excess in [4] is -0.0025; in the test with ES6 (Ewing's Sarcoma) it was 0.13; with UACC-257 (Melanoma) it was 0.0213; in the test with NCI-H226 (Mesothelioma) it was -0.0493; in [5], 0.0387; in [6], -0.0071. In addition, the Bliss excess is -0.0169 in [7]; 0.0271 in [8]; 0.0147 in test [9]; 0.053 in test [10]; 0.0494 in [12]; 0.0645 in [13]. Besides, the Bliss excess in test [15] came to 0.112; in test [16], 0.0015; in test [17], 0.0626.

(Values after the supplement of paper PMC11061612.)
